Data set [1] is described as follows: Metabolic stability in rat liver microsomes assessed as half life. It counts as ADME, Microsome. (In general: Liver microsomes are vesicles of endoplasmic reticulum, rich in cytochrome P450 enzymes.)
A short description of data set [2]: Lipophilicity, logD of compound. It counts as physicochemical. As to conditions: octanol/water.
The target in data set [3] is T1, Protein patched homolog 1 (Homo sapiens) (UniProt Q13635).
T1 sequence (whole entry): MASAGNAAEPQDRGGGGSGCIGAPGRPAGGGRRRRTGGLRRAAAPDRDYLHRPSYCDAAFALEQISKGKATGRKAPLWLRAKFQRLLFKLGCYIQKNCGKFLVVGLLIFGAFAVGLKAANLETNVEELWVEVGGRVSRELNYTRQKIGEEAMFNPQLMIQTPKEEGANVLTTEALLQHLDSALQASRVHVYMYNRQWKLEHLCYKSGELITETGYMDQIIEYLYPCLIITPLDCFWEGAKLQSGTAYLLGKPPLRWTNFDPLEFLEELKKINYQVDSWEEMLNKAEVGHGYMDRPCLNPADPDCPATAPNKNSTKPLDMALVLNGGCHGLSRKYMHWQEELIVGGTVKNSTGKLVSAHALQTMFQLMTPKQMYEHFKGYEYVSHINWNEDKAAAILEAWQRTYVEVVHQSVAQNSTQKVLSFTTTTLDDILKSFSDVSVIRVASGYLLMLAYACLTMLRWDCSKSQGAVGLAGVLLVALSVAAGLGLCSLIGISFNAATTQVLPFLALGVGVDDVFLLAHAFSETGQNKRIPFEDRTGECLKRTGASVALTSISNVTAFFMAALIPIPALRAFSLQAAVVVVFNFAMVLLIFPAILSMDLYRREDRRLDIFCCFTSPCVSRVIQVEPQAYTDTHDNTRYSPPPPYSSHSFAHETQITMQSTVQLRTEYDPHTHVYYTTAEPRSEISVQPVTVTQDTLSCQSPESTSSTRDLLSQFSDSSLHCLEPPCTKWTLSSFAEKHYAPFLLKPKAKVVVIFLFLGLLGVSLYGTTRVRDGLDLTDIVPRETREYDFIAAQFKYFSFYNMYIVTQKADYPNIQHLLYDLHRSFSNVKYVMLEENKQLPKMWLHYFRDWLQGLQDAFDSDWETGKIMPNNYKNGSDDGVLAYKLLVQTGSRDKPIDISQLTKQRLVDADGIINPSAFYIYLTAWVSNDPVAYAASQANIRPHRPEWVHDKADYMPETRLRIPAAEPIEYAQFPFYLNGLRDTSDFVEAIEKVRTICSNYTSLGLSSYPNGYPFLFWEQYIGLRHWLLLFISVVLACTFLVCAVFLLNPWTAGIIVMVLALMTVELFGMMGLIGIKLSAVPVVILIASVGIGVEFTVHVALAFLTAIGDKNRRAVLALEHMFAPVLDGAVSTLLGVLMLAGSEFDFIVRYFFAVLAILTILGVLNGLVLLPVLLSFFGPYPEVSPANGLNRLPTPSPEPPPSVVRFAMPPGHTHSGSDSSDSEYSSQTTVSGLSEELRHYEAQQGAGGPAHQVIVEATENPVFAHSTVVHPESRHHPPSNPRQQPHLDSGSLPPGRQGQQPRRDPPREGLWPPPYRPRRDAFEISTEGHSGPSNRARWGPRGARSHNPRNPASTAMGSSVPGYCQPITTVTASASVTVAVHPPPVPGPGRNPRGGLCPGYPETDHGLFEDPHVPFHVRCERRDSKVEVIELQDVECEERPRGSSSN
Nature of the data set: Inhibition of Ptch1 in human adrenocortical carcinoma cells assessed as fold increase doxorubicin cytotoxicity. It counts as cell-based. As to conditions: Adrenocortical carcinoma cell.

The nature of data set [4]: Inhibition of Ptch1 in vemurafenib-resistant human A-375 BRAF V600E cells assessed as fold increase in cisplatin cytotoxicity.
Data set [5] is described as follows: In vivo inhibition of Ptch1 in vemurafenib-resistant human A-375 BRAF V600E cells xenografted in Nu/Nu NMRI mouse assessed as fold increase in vemurafenib anticancer activity at 5 mg/kg, ip administered 5 days a week measured on after 23 days of first treatment relative to control. It counts as functional. The following applies: time 5 day. For orientation: A xenograft is tissue or cells of one species grown in another, often human tumour cells in immunodeficient mice.

Data set [6] deals with T1, Protein patched homolog 1 (Homo sapiens). Nature of the data set: Inhibition of Ptch1 in human Melanoma cells assessed as fold increase cisplatin cytotoxicity. It counts as cell-based. The following applies: Melanoma cell.
The target is the same in data set [7]. Nature of the data set: Inhibition of Ptch1 in human Melanoma cells assessed as fold increase vemurafenib cytotoxicity. It counts as cell-based. As to conditions: Melanoma cell.
Data set [8] can be described thus: Inhibition of Ptch1 in vemurafenib-resistant human A-375 BRAF V600E cells assessed as fold increase in doxorubicin cytotoxicity.
Data set [9] has as its target T1, Protein patched homolog 1 (Homo sapiens). The data set is described as follows: Inhibition of Ptch1 in human Melanoma cells assessed as fold increase doxorubicin cytotoxicity. As to conditions: Melanoma cell. It counts as cell-based.

Broadly, the half-life is the time in which the quantity being followed falls by half. Broadly, the logD is the decadic logarithm of the distribution of all forms, ionised or not, between an organic phase and buffer at a given pH. Low readings indicate a more hydrophilic compound, high ones a more lipophilic compound. For the compound `COc1ccc(CCN2CCC(Nc3nc4ccccc4n3Cc3ccc(F)cc3)CC2)cc1` [ASTEMIZOLE], the half-life in data set [1] was greater than 60 min. Further, in [2], the logD was determined as 2.9. The fold change (FC) in data set [3] came out at 10.

`CSc1ccc2c(c1)C(N1CCN(C)CC1)Cc1ccccc1S2` (stereo unspecified) [METITEPINE]: the “fold change (FC)” value in [4] stood at 3.6; in [5], 10; in [6], 3; in data set [7] it was 4; in data set [8] it was 15; in data set [3], 6.6. Besides, in data set [9], the fold change (FC) stood at 5.8. The half-life in [1] turned out to be 31 min. In [2], this compound displayed a logD of 3.5.

Take `COc1cc(C)c(CC/C(C)=C/Cc2cc(O)ccc2O)c(C)c1C` [PANICEIN A HYDROQUINONE]: the “fold change (FC)” value is 10 in [5], 68 in data set [8] and 128 in data set [3]. Besides, the half-life in [1] worked out at 1 min.
